# “Also recorded” adds a separate entry of the source.
# Test system: glycosyltransferase LbUGT71BX1
# Experiment: in-vitro enzyme activity testing of recombinant LbUGT71BX1 with flavonoid substrates and UDP-sugar donors (LC-Q-TOF-MS)
# Format: biochemical, Laportea bulbifera
# Settings: purified recombinant enzyme, 37° C., 1 hour, Tris-HCl pH 7.5, compared with pMAL-c2X empty control
# Protocol: The in-vitro enzyme activity testing steps are as follows: the 50 μL reaction system contained 1 μL flavonoid substrate (40 mM) (kaempferol or myricetin or gossypetin or quercetagetin), 1 μL UDP-sugar donor (100 mM) (UDP-galactose or UDP-glucose) and […] purified enzyme, and Tris-HCl buffer (pH 7.5) was used to complement the system. With the pMAL-c2X empty crude enzyme catalytic system as a negative control, place the reaction system at 37° C. for 1 hour, and add the same volume of methanol to stop the reaction. Concentrate the above mixture in vacuo and reconstitute it with 100 μL of methanol. Perform filtration using a 0.22 m microporous membrane and transfer the sample to a liquid vial for assay. Use the Agilent 1290 Infinity II-6430 Q-TOF to test the sample. The specific liquid conditions are as follows: (1) Column: ACQUITY UPLC BEH C18 1.7 m 2.1×100 mm; (2) Mobile phase: 0.1% pure water for phase A and chromatographic acetonitrile for phase B; (3) Flow rate: 0.3 mL/min; (4) Column temperature: 40° C.; (5) Injection volume: 1.0 μL; (6) Elution conditions are shown in Table 6. The mass spectrometry conditions are: the ion mode is negative ion, the scan range is 100-3000; the mode is Automated MS/MS; the ion fragment collision energy is 20 V; the source temperature is 350° C.; the nebulizer pressure is set to 30 psi.
compound,measurement,setting,value
O=c1c(O)c(-c2cc(O)c(O)c(O)c2)oc2cc(O)cc(O)c12 [myricetin],product generated from the flavonoid substrate by LbUGT71BX1,UDP-galactose as sugar donor,myricetin-3-O-galactoside
same,product generated from the flavonoid substrate by LbUGT71BX1,UDP-glucose as sugar donor,myricetin-3-O-glucoside; also recorded: myricetin-7-O-glucoside
O=c1c(O)c(-c2ccc(O)c(O)c2)oc2c(O)c(O)cc(O)c12 [gossypetin],product generated from the flavonoid substrate by LbUGT71BX1,UDP-glucose as sugar donor,gossypetin-3-O-glucoside
O=c1c(O)c(-c2ccc(O)cc2)oc2cc(O)cc(O)c12 [kaempferol],product generated from the flavonoid substrate by LbUGT71BX1,UDP-galactose as sugar donor,kaempferol-3-O-galactoside
same,product generated from the flavonoid substrate by LbUGT71BX1,UDP-glucose as sugar donor,kaempferol-3-O-glucoside

# Source: patent US20250257331A1, “FLAVONOID GLYCOSIDE GLYCOSYLTRANSFERASE LbUGT71BX1 IN LAPORTEA BULBIFERA AS WELL AS THE CODING GENE AND THE USE THEREOF” (INSTITUTE OF CHINESE MATERIA MEDICA CHINA ACADEMY OF …, priority 2024, published 2025)
